Data published in US20220324815A1, “2-PHENOXY-PYRIMIDINE DERIVATIVES AS HERBICIDAL COMPOUNDS” (SYNGENTA CROP PROTECTION AG, priority 2019, published 2022).

How the values were obtained:
Format in all cases: in vivo
Conditions in all cases: 250 g/ha unless otherwise stated, evaluated after 13 days, five-point scale
[1] = test system: Amaranthus retoflexus (AMARE); assay: Test 1 glasshouse herbicide test, post-emergence application (Table B1)
Protocol: (§1) Seeds of a variety of test species are sown in standard soil in pots (Lolium perenne (LOLPE), Solanum nigrum (SOLNI), Amaranthus retoflexus (AMARE), Setaria faberi (SETFA), Echinochloa crus-galli (ECHCG) and Ipomoea hederacea (IPOHE)). After cultivation for one day (pre-emergence) or after 8 days cultivation (post-emergence) under controlled conditions in a glasshouse (at 24/16° C., day/night; 14 hours light; 65% humidity), the plants are sprayed with an aqueous spray solution derived from the formulation of the technical active ingredient in acetone/water (50:50) solution containing 0.5% Tween 20 (polyoxyethelyene sorbitan monolaurate, CAS RN 9005-64-5). Compounds are applied at 250 g/ha unless otherwise stated. The test plants are then grown in a glasshouse under controlled conditions in a glasshouse (at 24/16° C., day/night; 14 hours light; 65% humidity) and watered twice daily. After 13 days for pre and post-emergence, the test is evaluated for the percentage damage caused to the plant. The biological activities (% phytotoxicity) are shown in Tables B1 and B2 below using a five-point scale (5=81 to 100%; 4=61 to 80%; 3=41 to 60%; 2=21 to 40%; 1=0 to 20%).

[2] = test system: Echinochloa crus-galli (ECHCG); assay: as above
Protocol: as §1

[3] = test system: Ipomoea hederacea (IPOHE); assay: as above
Protocol: as §1

Setaria faberi (SETFA) [4] = assay: as above
Protocol: as §1

[5] = test system: Amaranthus retoflexus (AMARE); assay: Test 1 glasshouse herbicide test, pre-emergence application (Table B2)
Protocol: as §1

[6] = test system: Echinochloa crus-galli (ECHCG); assay: as above
Protocol: as §1

[7] = test system: Ipomoea hederacea (IPOHE); assay: as above
Protocol: as §1

Setaria faberi (SETFA) [8] = assay: as above
Protocol: as §1

| Compound | % phytotoxicity AMARE, post-emergence application [1] | % phytotoxicity ECHCG, post-emergence application [2] | % phytotoxicity IPOHE, post-emergence application [3] | % phytotoxicity SETFA, post-emergence application (Setaria faberi (SETFA) [4]) | % phytotoxicity AMARE, pre-emergence application [5] | % phytotoxicity ECHCG, pre-emergence application [6] | % phytotoxicity IPOHE, pre-emergence application [7] | % phytotoxicity SETFA, pre-emergence application (Setaria faberi (SETFA) [8]) |
| --- | --- | --- | --- | --- | --- | --- | --- | --- |
| CC(C)CCSc1ccccc1Oc1ncc(Cl)cn1 [Compound A70] | 2 (2=21 to 40%) | 5 (5=81 to 100%) | 4 (4=61 to 80%) | 4 (4=61 to 80%) | 2 (2=21 to 40%) | 5 (5=81 to 100%) | 1 (1=0 to 20%) | 5 (5=81 to 100%) |
| [O-][S+](CCCC(F)F)c1c(Cl)cccc1Oc1ncc(Cl)cn1 (stereo not drawn) [Compound A104] | 5 (5=81 to 100%) | 5 (5=81 to 100%) | 5 (5=81 to 100%) | 5 (5=81 to 100%) | 5 (5=81 to 100%) | 5 (5=81 to 100%) | 5 (5=81 to 100%) | 5 (5=81 to 100%) |
| O=S(=O)(CC1CC1)c1ccccc1Oc1ncc(Cl)cn1 [Compound A51] | 3 (3=41 to 60%) | 1 (1=0 to 20%) | 1 (1=0 to 20%) | 1 (1=0 to 20%) | 4 (4=61 to 80%) | 1 (1=0 to 20%) | 1 (1=0 to 20%) | 2 (2=21 to 40%) |
| CCCCSc1ccccc1Oc1ncc(Cl)cn1 [Compound A21] | 4 (4=61 to 80%) | 4 (4=61 to 80%) | 3 (3=41 to 60%) | 4 (4=61 to 80%) | 4 (4=61 to 80%) | 5 (5=81 to 100%) | 2 (2=21 to 40%) | 5 (5=81 to 100%) |
| [O-][S+](CCC(F)F)c1c(Cl)cccc1Oc1ncc(Cl)cn1 (stereo not drawn) [Compound A95] | 4 (4=61 to 80%) | 2 (2=21 to 40%) | 4 (4=61 to 80%) | 1 (1=0 to 20%) | 5 (5=81 to 100%) | 5 (5=81 to 100%) | 5 (5=81 to 100%) | 5 (5=81 to 100%) |
| N#Cc1cccc(Oc2ncc(Cl)cn2)c1SCCCCCC(F)(F)F [Compound A40] | 5 (5=81 to 100%) | 4 (4=61 to 80%) | 3 (3=41 to 60%) | 4 (4=61 to 80%) | 5 (5=81 to 100%) | 4 (4=61 to 80%) | 1 (1=0 to 20%) | 5 (5=81 to 100%) |
| C=CCS(=O)(=O)c1ccccc1Oc1ncc(Cl)cn1 [Compound A48] | 2 (2=21 to 40%) | 1 (1=0 to 20%) | 1 (1=0 to 20%) | 1 (1=0 to 20%) | 1 (1=0 to 20%) | 1 (1=0 to 20%) | 1 (1=0 to 20%) | 1 (1=0 to 20%) |
| N#Cc1cccc(Oc2ncc(Cl)cn2)c1SCCC(F)F [Compound A99] | 5 (5=81 to 100%) | 5 (5=81 to 100%) | 4 (4=61 to 80%) | 4 (4=61 to 80%) | 5 (5=81 to 100%) | 5 (5=81 to 100%) | 5 (5=81 to 100%) | 5 (5=81 to 100%) |
| N#Cc1cccc(Oc2ncc(Cl)cn2)c1SCCCC(F)F [Compound A100] | 5 (5=81 to 100%) | 5 (5=81 to 100%) | 5 (5=81 to 100%) | 4 (4=61 to 80%) | 5 (5=81 to 100%) | 5 (5=81 to 100%) | 5 (5=81 to 100%) | 5 (5=81 to 100%) |
| FC(F)(F)CSc1ccccc1Oc1ncc(Cl)cn1 [Compound A55] | 5 (5=81 to 100%) | 4 (4=61 to 80%) | 4 (4=61 to 80%) | 4 (4=61 to 80%) | 5 (5=81 to 100%) | 5 (5=81 to 100%) | 2 (2=21 to 40%) | 5 (5=81 to 100%) |
| CCCSc1ccccc1Oc1ncc(Cl)cn1 [Compound A49] | 4 (4=61 to 80%) | 4 (4=61 to 80%) | 4 (4=61 to 80%) | 4 (4=61 to 80%) | 5 (5=81 to 100%) | 5 (5=81 to 100%) | 3 (3=41 to 60%) | 5 (5=81 to 100%) |
| CCCCS(=O)(=O)c1ccccc1Oc1ncc(Cl)cn1 [Compound A20] | 2 (2=21 to 40%) | 2 (2=21 to 40%) | 1 (1=0 to 20%) | 3 (3=41 to 60%) | 3 (3=41 to 60%) | 4 (4=61 to 80%) | 1 (1=0 to 20%) | 4 (4=61 to 80%) |
| Cl/C=C/CSc1ccccc1Oc1ncc(Cl)cn1 [Compound A37] | 4 (4=61 to 80%) | 2 (2=21 to 40%) | 2 (2=21 to 40%) | 2 (2=21 to 40%) | 4 (4=61 to 80%) | 4 (4=61 to 80%) | 1 (1=0 to 20%) | 3 (3=41 to 60%) |
| O=S(=O)(C/C=C/Cl)c1ccccc1Oc1ncc(Cl)cn1 [Compound A38] | 2 (2=21 to 40%) | 1 (1=0 to 20%) | 3 (3=41 to 60%) | 1 (1=0 to 20%) | 2 (2=21 to 40%) | 1 (1=0 to 20%) | 1 (1=0 to 20%) | 1 (1=0 to 20%) |
| C#CCSc1ccccc1Oc1ncc(Cl)cn1 [Compound A45] | 3 (3=41 to 60%) | 3 (3=41 to 60%) | 1 (1=0 to 20%) | 2 (2=21 to 40%) | 3 (3=41 to 60%) | 3 (3=41 to 60%) | 1 (1=0 to 20%) | 3 (3=41 to 60%) |
| CCCCCCSc1ccccc1Oc1ncc(Cl)cn1 [Compound A53] | 4 (4=61 to 80%) | 1 (1=0 to 20%) | 1 (1=0 to 20%) | 1 (1=0 to 20%) | 3 (3=41 to 60%) | 2 (2=21 to 40%) | 1 (1=0 to 20%) | 3 (3=41 to 60%) |
| O=S(=O)(CC(F)(F)F)c1ccccc1Oc1ncc(Cl)cn1 [Compound A78] |  |  |  |  | 3 (3=41 to 60%) | 1 (1=0 to 20%) | 1 (1=0 to 20%) | 1 (1=0 to 20%) |
